The IC50 is the concentration that inhibits the measured activity by half.

For 68 compounds, IC50 results are on record in patent US12295396B2, “Antagonists of T2R54 and compositions and uses thereof” (Firmenich Incorporated, priority 2018, dated 2025).

The target in this assay is T1, hT2R54 (Homo sapiens, UniProt P59534).
T1 construct: expressed in transfected cells; it overexpresses a promiscuous G protein
T1 sequence (P59534 1-338): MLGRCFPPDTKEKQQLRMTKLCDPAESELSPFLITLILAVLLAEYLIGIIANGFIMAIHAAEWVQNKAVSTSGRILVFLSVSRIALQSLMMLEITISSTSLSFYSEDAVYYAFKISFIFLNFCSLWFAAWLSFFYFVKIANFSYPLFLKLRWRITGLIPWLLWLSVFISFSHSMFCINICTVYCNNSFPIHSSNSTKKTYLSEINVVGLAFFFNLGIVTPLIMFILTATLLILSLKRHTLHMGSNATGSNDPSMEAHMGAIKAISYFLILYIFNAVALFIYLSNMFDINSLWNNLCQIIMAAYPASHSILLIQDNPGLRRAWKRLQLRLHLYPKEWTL
Briefly: Cell-based assay for measuring hT2R54 inhibition (FLIPR calcium, Fluo4AM, acetaminophen as bitter agonist). As to conditions: Table 2; cells stably expressing hT2R54 and a promiscuous G protein; read-out: hT2R54 IC50. The method, boiled down:
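The readout was FLIPR calcium (Fluo4AM, 10 s baseline, 3 min post-addition) in cells stably carrying hT2R54 plus a promiscuous G protein, with host cells lacking hT2R54 as counter-control. Acetaminophen concentration series were tested with and without set test-compound levels. Half-maximal block of the agonist response gave the EC50/IC50.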

With `CC(=O)c1cc2c(cc1NC(=O)CN1CCN(C(=O)c3ncc[nH]3)CC1)OCO2` [compound 301], the IC50 is 20 nM.

For the compound `CC(=O)c1cc2c(cc1NC(=O)CN1CCN(C(=O)c3cn[nH]c3)CC1)OCO2` [compound 302], the half-maximal inhibitory concentration (IC50) was determined as 800 nM.

Regarding `CC(=O)c1cc2c(cc1NC(=O)CN1CCN(C(=O)c3c[nH]nn3)CC1)OCO2` [compound 303], the IC50 stood at 60 nM.

Regarding `CC(=O)c1cc2c(cc1NC(=O)CN1CCN(C(=O)c3ncn[nH]3)CC1)OCO2` [compound 304], the concentration for half-maximal inhibition (IC50) worked out at 80 nM.

With `CC(=O)c1cc2c(cc1NC(=O)CN1CCN(C(=O)c3nccn3C)CC1)OCO2` [compound 305], the IC50 is 31 nM.

As to `COc1cc2c(cc1NC(=O)CN1CCN(C(=O)c3nc(C)c[nH]3)CC1)OCO2` [compound 306], the IC50 stood at 77 nM.

In the case of `CC(=O)c1cc2c(cc1NC(=O)CN1CCN(C(=O)c3n[nH]cc3C)CC1)OCO2` [compound 307], the half-maximal inhibitory concentration (IC50) came to 90 nM.

Turning to `CC(=O)c1cc2c(cc1NC(=O)CN1CCN(C(=O)c3nc(C)c[nH]3)CC1)OCO2` [compound 308], the IC50 was 9 nM.

Take `CC(=O)c1cc2c(cc1NC(=O)CN1CCN(C(=O)c3c[nH]c(C)n3)CC1)OCO2` [compound 309]: the IC50 amounted to 200 nM.

Take `CC(=O)c1cc2c(cc1NC(=O)CN1CCN(C(=S)Nc3ccccc3)CC1)OCO2` [compound 310]: the concentration for half-maximal inhibition (IC50) is 800 nM.

Turning to `COCC(=O)N1CCN(CC(=O)Nc2cc3c(cc2C(=O)OC)OCO3)CC1` [compound 311], the half-maximal inhibitory concentration (IC50) was 82 nM.

Take `COCCC(=O)N1CCN(CC(=O)Nc2cc3c(cc2C(=O)OC)OCO3)CC1` [compound 312]: the IC50 stood at 157 nM.

Turning to `CC(=O)c1cc2c(cc1NC(=O)CN1CCN(C(=O)[C@H]3CCC(=O)O3)CC1)OCO2` [compound 313], the IC50 stood at 60 nM.

`CC(=O)c1cc2c(cc1NC(=O)CN1CCN(C(=O)[C@@H]3CCCO3)CC1)OCO2` [compound 314]: the IC50 was determined as 60 nM.

Take `CC(=O)c1cc2c(cc1NC(=O)CN1CCN(C(=O)[C@H]3CCCO3)CC1)OCO2` [compound 315]: the IC50 was 130 nM.

For the compound `CC(=O)c1cc2c(cc1NC(=O)C(C)N1CCN(C(=O)[C@@H]3CCCO3)CC1)OCO2` (some centres unmarked) [compound 316], the IC50 amounted to 80 nM.

Turning to `CC(=O)c1cc2c(cc1NC(=O)C(C)N1CCN(C(=O)[C@H]3CCCO3)CC1)OCO2` (some centres unmarked) [compound 317], the IC50 was 200 nM.

As to `CC(=O)c1cc2c(cc1NC(=O)C(C)N1CCN(C(=O)C3CCCO3)CC1)OCO2` (centres unmarked) [compound 318], the IC50 was found to be 60 nM.

For `CC(=O)c1cc2c(cc1NC(=O)C(C)(C)N1CCN(C(=O)C3CCCO3)CC1)OCO2` (centres unmarked) [compound 319], the IC50 worked out at 1000 nM.

For the compound `COCC(C(=O)Nc1cc2c(cc1C(C)=O)OCO2)N1CCN(C(=O)[C@H]2CCCO2)CC1` (some centres unmarked) [compound 320], the IC50 was determined as 1600 nM.

In the case of `CC(=O)c1cc2c(cc1NC(=O)CN1CCN(C(=O)C3CCN(C)C3)CC1)OCO2` (centres unmarked) [compound 321], the IC50 came to 1000 nM.

Take `CC(=O)c1cc2c(cc1NC(=O)CN1CCN(C(=O)CC3CCCO3)CC1)OCO2` (centres unmarked) [compound 322]: the IC50 came to 70 nM.

`CC(=O)c1cc2c(cc1NC(=O)CN1CCN(C(=O)CC3CCOC3)CC1)OCO2` (centres unmarked) [compound 323]: the IC50 is 200 nM.

For `CC(=O)c1cc2c(cc1NC(=O)CN1CCN(C(=O)Cc3ccoc3)CC1)OCO2` [compound 324], the IC50 was determined as 80 nM.

In the case of `COCc1ccc(C(=O)N2CCN(CC(=O)Nc3cc4c(cc3C(C)=O)OCCO4)CC2)cc1` [compound 325], the IC50 came out at 45 nM.

As for `CC(=O)c1cc2c(cc1NC(=O)CN1CCN(C(=O)c3cccnc3)CC1)OCCO2` [compound 326], the IC50 is 40 nM.

For `CC(=O)c1cc2c(cc1NC(=O)CN1CCN(C(=O)c3ccncc3)CC1)OCCO2` [compound 327], the IC50 was 70 nM.

For `CC(=O)c1cc2c(cc1NC(=O)CN1CCN(C(=O)c3ncn[nH]3)CC1)OCCO2` [compound 328], the IC50 turned out to be 60 nM.

For the compound `CC(=O)c1cc2c(cc1NC(=O)CN1CCN(C(=O)c3cnn[nH]3)CC1)OCCO2` [compound 329], the IC50 was 50 nM.

As for `CC(=O)c1cc2c(cc1NC(=O)CN1CCN(C(=O)c3ccn[nH]3)CC1)OCCO2` [compound 330], the IC50 was found to be 90 nM.

Take `CC(=O)c1cc2c(cc1NC(=O)CN1CCN(C(=O)c3c[nH]c(C)n3)CC1)OCCO2` [compound 331]: the IC50 is 200 nM.

`CC(=O)c1cc2c(cc1NC(=O)CN1CCN(C(=O)c3nc(C)c[nH]3)CC1)OCCO2` [compound 332]: the half-maximal inhibitory concentration (IC50) was determined as 200 nM.

On to `CC(=O)c1cc2c(cc1NC(=O)CN1CCN(C(=O)c3ccc(C)o3)CC1)OCCO2` [compound 333], for which the IC50 amounted to 80 nM.

`CC(=O)c1cc2c(cc1NC(=O)CN1CCN(C(=O)Cc3ccco3)CC1)OCCO2` [compound 334]: the IC50 was determined as 50 nM.

Turning to `CC(=O)c1cc2c(cc1NC(=O)CN1CCN(C(=O)[C@H]3CCC(=O)O3)CC1)OCCO2` [compound 335], the IC50 is 50 nM.

As for `CC(=O)c1cc2c(cc1NC(=O)CN1CCN(C(C)=O)CC1)OCCO2` [compound 336], the IC50 came to 50 nM.

Turning to `CC(=O)c1cc2c(cc1NC(=O)C(C)N1CCN(C(C)=O)CC1)OCCO2` (centres unmarked) [compound 337], the half-inhibitory concentration (IC50) came out at 60 nM.

Turning to `COCC(=O)N1CCN(CC(=O)Nc2cc3c(cc2C(C)=O)OCCO3)CC1` [compound 338], the IC50 worked out at 60 nM.

On to `COCCOCC(=O)N1CCN(CC(=O)Nc2cc3c(cc2C(C)=O)OCCO3)CC1` [compound 339], for which the 50% inhibitory concentration (IC50) turned out to be 80 nM.

In the case of `CC(=O)c1cc2c(cc1NC(=O)CN1CCN(C(=O)C3CCCO3)CC1)OCCO2` (centres unmarked) [compound 340], the IC50 turned out to be 90 nM.

As for `CC(=O)c1cc2c(cc1NC(=O)CN1CCN(C(=O)[C@@H]3CCCO3)CC1)OCCO2` [compound 341], the IC50 is 1800 nM.

With `CC(=O)c1cc2c(cc1NC(=O)CN1CCN(C(=O)[C@H]3CCCO3)CC1)OCCO2` [compound 342], the IC50 stood at 70 nM.

As to `CC(=O)c1cc2c(cc1NC(=O)CN1CCN(C(=O)C3CCCCO3)CC1)OCCO2` (centres unmarked) [compound 343], the IC50 came out at 30 nM.

On to `CC(=O)c1cc2c(cc1NC(=O)CN1CCN(C(=O)CC3CCOC3)CC1)OCCO2` (centres unmarked) [compound 344], for which the IC50 amounted to 50 nM.

Take `CC(=O)c1cc2c(cc1NC(=O)CN1CCN(C(=O)CN3CCCC3)CC1)OCCO2` [compound 345]: the IC50 is over 10000 nM.

`COC(=O)c1cc2c(cc1NC(=O)CN1CCN(C(=O)c3cn(C)nn3)CC1)OCO2` [compound 346]: the IC50 is 23 nM.

Turning to `COCc1ccc(C(=O)N2CCN(CC(=O)Nc3cc4c(cc3C(=O)OC)OCO4)CC2)o1` [compound 347], the IC50 was 83 nM.

Take `COC(=O)c1cc2c(cc1NC(=O)CN1CCN(C(C)=O)CC1)OCO2` [compound 348]: the IC50 stood at 166 nM.

In the case of `CCCC(=O)N1CCN(CC(=O)Nc2cc3c(cc2C(=O)OC)OCO3)CC1` [compound 349], the concentration for half-maximal inhibition (IC50) was 244 nM.

Consider `COC(=O)c1cc2c(cc1NC(=O)CN1CCN(C(=O)C3CCCO3)CC1)OCO2` (centres unmarked) [compound 350], for which the half-inhibitory concentration (IC50) was determined as 299 nM.

For `COC(=O)c1cc2c(cc1NC(=O)CN1CCN(C(=O)CC3CCCO3)CC1)OCO2` (centres unmarked) [compound 351], the IC50 is 439 nM.

With `COC(=O)c1cc2c(cc1NC(=O)CN1CCN(C(=O)CN3CCOCC3)CC1)OCO2` [compound 352], the IC50 is 740 nM.

In the case of `COC(=O)c1cc2c(cc1NC(=O)CN1CCN(C(C)=O)CC1)CCCC2` [compound 353], the IC50 was 2100 nM.

For the compound `COc1cc2c(cc1NC(=O)CN1CCN(C(=O)C3CCCO3)CC1)CCC2` (centres unmarked) [compound 354], the IC50 was determined as 1900 nM.

Consider `COc1cc2c(cc1NC(=O)CN1CCN(C(C)=O)CC1)CCC2` [compound 355], for which the IC50 is 2500 nM.

Turning to `COCc1cccc(C(=O)N2CCN(CC(=O)Nc3cc4c(cc3OC)OCO4)CC2)c1` [compound 356], the IC50 was determined as 156 nM.

On to `COCc1ccc(C(=O)N2CCN(CC(=O)Nc3cc4c(cc3OC)OCO4)CC2)s1` [compound 357], for which the IC50 was found to be 208 nM.

For `COCc1ccc(C(=O)N2CCN(CC(=O)Nc3cc4c(cc3OC)OCO4)CC2)cc1` [compound 358], the IC50 is 148 nM.

As for `COCc1nc(C(=O)N2CCN(CC(=O)Nc3cc4c(cc3OC)OCO4)CC2)cs1` [compound 359], the IC50 was found to be 261 nM.

On to `COc1cc2c(cc1NC(=O)CN1CCN(C(=O)c3cn(C)nn3)CC1)OCO2` [compound 360], for which the IC50 was found to be 735 nM.

For the compound `COCc1nc(C(=O)N2CCN(CC(=O)Nc3cc4c(cc3OC)OCO4)CC2)co1` [compound 361], the IC50 was determined as 546 nM.

Take `COc1cc2c(cc1NC(=O)CN1CCN(C(=O)c3ncoc3C)CC1)OCO2` [compound 362]: the IC50 is 567 nM.

As for `COc1cc2c(cc1NC(=O)CN1CCN(C(=O)c3cn(C)nc3C)CC1)OCO2` [compound 363], the concentration for half-maximal inhibition (IC50) was 600 nM.

`COc1cc2c(cc1NC(=O)CN1CCN(C(C)=O)CC1)OCO2` [compound 364]: the IC50 was 1560 nM.

As to `COc1cc2c(cc1NC(=O)CN1CCN(C(=O)CN3CCOCC3)CC1)OCO2` [compound 365], the IC50 is 2640 nM.

Regarding `COc1cc2c(cc1NC(=O)CN1CCN(C(=O)c3cccc(F)c3)CC1)OCO2` [compound 367], the IC50 is 600 nM.

Take `COc1ccc(C(=O)N2CCN(CC(=O)Nc3cc4c(cc3OC)OCO4)CC2)cc1` [compound 368]: the IC50 was determined as 600 nM.

Regarding `COc1cccc(C(=O)N2CCN(CC(=O)Nc3cc4c(cc3OC)OCO4)CC2)c1` [compound 369], the half-inhibitory concentration (IC50) was 300 nM.
